In patent US12673028B2, “Therapeutic potential of cellulose-cyclodextrin-curcumin nanocrystals in the treatment of peripheral neuropathies” (UNIVERSITÉ DE LIMOGES, priority 2019, dated 2026):

Tests used:
[1] = Bioavailability of curcumin in plasma; format: in vivo; conditions: rat, 50 mg/kg
wild type Schwann cells = assay: In vitro H2O2-induced oxidative stress in Schwann cells; format: cell-based, rat; conditions: H2O2 0.1 mM
Procedure: Schwann cells (SCs) were isolated from sciatic nerves of wild type (WT) male rats as well as 8-week-old CMT1A rats. SCs were cultured in SC culture medium (described in Caillaud et al., 2018): DMEM D-valine+2 mM glutamine (Gibco)+10% fetal calf serum (Gibco)+1% N2 supplement (Gibco)+20 μg/mL bovine pituitary extract+5 μM forskolin (Gibco)+100 U/mL penicillin/streptomycin (Gibco)+250 μg/mL fungizone (Gibco). SCs were identified using immunofluorescent labeling for S-100 protein.
To induce oxidative stress, SCs were subjected to H2O2 (0.1 mM) treatment for 8 hours. Total ROS and mitochondrial superoxide ions were assessed using the CellROX-Green reagent (Life Technologies GmbH) and the mitochondrial superoxide indicator MitoSOX Red (Life Technologies GmbH), respectively, according to the manufacturer's recommendations.

[2] = rats; cited from earlier work

concentration at 0 h [1]: 0 ng/mL
concentration at 1 h [1]: 24.9 ng/mL
concentration at 2 h [1]: 4.3 ng/mL
concentration at 8 h [1]: 0 ng/mL
concentration at 12 h [1]: 0 ng/mL
Structure (SMILES): COc1cc(/C=C/C(=O)CC(=O)/C=C/c2ccc(O)c(OC)c2)ccc1O [Curcumin, curcumin]
Mitochondrial membrane potential Δψm (Rho123) (wild type Schwann cells; 0.001 μM and 0.01 μM): did not reduce the H2O2-induced decrease in Δψm
H2O2-induced mitochondrial ROS (MitoSOX) (wild type Schwann cells; 1 μM, 8 h pretreatment): restored values close to those of the control group
H2O2-induced total ROS (CellROX) (wild type Schwann cells; 1 μM, 8 h pretreatment): reduced H2O2-induced total ROS
H2O2-induced total ROS (CellROX) (wild type Schwann cells; 0.001, 0.01 and 10 μM, 8 h pretreatment): had no antioxidant effect
Oral bioavailability [2]: approximately 1%
